Usually IC50 stands for the point on the concentration scale where inhibition reaches its midpoint.

Molecules are shown by their SMILES.

The values below come from patent US20140093513A1, “METHODS OF LOWERING PROPROTEIN CONVERSATE SUBTILISIN/KEXIN TYPE 9 (PCSK9)” (Catabasis Pharmaceuticals, Inc., priority 2012, published 2014).

The first assay relates to PCSK9. As to the kind of experiment: PCSK9 secretion assay in HepG2 cells (PCSK9 ELISA). Type of assay: cell-based. The following applies: HepG2 cells, 16 hours incubation, at least 6 concentrations. As for the experimental part:
HepG2 cells (from ATCC, Catalog no. HB-8065) were maintained in DMEM (Invitrogen) supplemented with 10% fetal bovine serum (Invitrogen). The day prior to the PCSK9 assay, cells are seeded in 96-well collagen coated plates at 25,000 cells/well.
The compounds of the invention were stored at −20° C. until used. The test article compound was dissolved in 100% ethanol to a 50 mM stock solution. This was then diluted in FBS to a final concentration of 1 mM. This solution was placed in a sonicating water bath for 30 minutes. Subsequent dilutions were then made in FBS supplemented with an equivalent volume of ethanol and mixed by vortexing.
HepG2 cells were seeded onto a collagen coated 96-well plate (Becton Dickinson, Catalog no. 35-4407) the day prior to the assay, as described above. The next day, the cell medium was removed, washed once with 100 μL serum free DMEM to remove any residual PCSK9, and replaced with 90 μL of serum free DMEM. Ten microliters of each compound concentration prepared in FBS was then added. Each concentration of compound was tested in triplicate. The compound was incubated with the cells overnight for 16 hours. Following this incubation, 10 μL of AlamarBlue was added to each well and cells incubated for another 2 hours. The plates were then removed and AlamarBlue fluorescence was measured (excitation, 550 nm and […]) to assess cell viability. Cell culture supernatant was then diluted […] 1×RDSP Calibrator Diluent and PCSK9 ELISA was then performed with 50 μL of this diluted sample, as per the manufacturer's instructions. The ELISA was measured on a Victor X5 multilabel plate reader (PerkinElmer) at an absorbance of 450 nm with background correction measured at 550 nm (The PCSK9 Elisa kits can be purchased from R&D System, Catalog no. DPC900).
Alternatively, an IC50 could also be obtained when this type of assay was carried out using at least 6 different concentrations of the test compounds. Table 1 lists the IC50 values for the compounds tested in this assay.
A general note: ELISA stands for enzyme-linked immunosorbent assay.
As to `CC/C=C\C/C=C\C/C=C\C/C=C\C/C=C\C/C=C\CCC(=O)NCCN(C)CCNC(=O)c1cccnc1` [Compound I-2], the concentration for half-maximal inhibition (IC50) was below 25 µM.
On the same count and under the same terms, to `CC/C=C\C/C=C\C/C=C\C/C=C\C/C=C\C/C=C\CCC(=O)NCCNC(=O)c1cccnc1` [Compound I-7, N-(2-(4Z,7Z,10Z,13Z,16Z,19Z)-docosa-4,7,10,13,16,19-hexaenamidoethyl)nicotinamide] belongs below 25 µM.
The same measure, in the same setting: the result for `CC/C=C\C/C=C\C/C=C\C/C=C\C/C=C\CCCC(=O)N1CCN(C(=O)c2cccnc2)CC1` [Compound I-13, (5Z,8Z,11Z,14Z,17Z)-1-(4-nicotinoylpiperazin-1-yl)icosa-5,8,11,14,17-pentaen-1-one] reads 25 to 50 µM; that for `CC/C=C\C/C=C\C/C=C\C/C=C\C/C=C\C/C=C\CCC(=O)N(C)CCNC(=O)c1cccnc1` [Compound I-14, N-(2-((4Z,7Z,10Z,13Z,16Z,19Z)—N-methyldocosa-4,7,10,13,16,19-hexaenamido)ethyl)nicotinamide], below 25 µM; that for `CC/C=C\C/C=C\C/C=C\C/C=C\C/C=C\CCCC(=O)NCCCCNC(=O)c1cccnc1` [Compound I-19, N-(4-((5Z,8Z,11Z,14Z,17Z)-icosa-5,8,11,14,17-pentaenamido)butyl)nicotinamide], below 25 µM.
Same read-out and setting: to `CC/C=C\C/C=C\C/C=C\C/C=C\C/C=C\CCCC(=O)NCC(C)(C)NC(=O)c1cccnc1` [Compound I-21, N-(1-((5Z,8Z,11Z,14Z,17Z)-icosa-5,8,11,14,17-pentaenamido)-2-methylpropan-2-yl)nicotinamide] belongs below 25 µM.
`CC/C=C\C/C=C\C/C=C\C/C=C\C/C=C\CCCC(=O)N1CCC(NC(=O)c2cccnc2)CC1` [Compound I-22, N-(1-((5Z,8Z,11Z,14Z,17Z)-icosa-5,8,11,14,17-pentaenoyl)piperidin-4-yl)nicotinamide] yielded an IC50 below 25 µM.
On the same count and under the same terms, the result for `CC/C=C\C/C=C\C/C=C\C/C=C\C/C=C\CCCC(=O)N[C@H]1CCN(C(=O)c2cccnc2)C1` [Compound I-23, (5Z,8Z,11Z,14Z,17Z)—N—((S)-1-nicotinoylpyrrolidin-3-yl)icosa-5,8,11,14,17-pentaenamide] reads below 25 µM; that for `CC/C=C\C/C=C\C/C=C\C/C=C\C/C=C\CCCC(=O)NCCNC(=O)[C@@H](NC(=O)c1cccnc1)C(C)C` [Compound I-25, N—((S)-1-((2-((5Z,8Z,11Z,14Z,17Z)-icosa-5,8,11,14,17-pentaenamido)ethyl)amino)-3-methyl-1-oxobutan-2-yl)nicotinamide], 25 to 50 µM.
For the compound `CC/C=C\C/C=C\C/C=C\C/C=C\C/C=C\CCCC(=O)NCCNC(=O)CCNC(=O)c1cccnc1` [Compound I-26, N-(3-((2-((5Z,8Z,11Z,14Z,17Z)-icosa-5,8,11,14,17-pentaenamido)ethyl)amino)-3-oxopropyl)nicotinamide], the IC50 was in the range of 25 to 50 µM.
On the same count and under the same terms, the result for `CC/C=C\C/C=C\C/C=C\C/C=C\C/C=C\CCCC(=O)NCCNC(=O)[C@@H]1CCCN1C(=O)c1cccnc1` [Compound I-27, (S)—N-(2-((5Z,8Z,11Z,14Z,17Z)-icosa-5,8,11,14,17-pentaenamido)ethyl)-1-nicotinoylpyrrolidine-2-carboxamide] reads below 25 µM; that for `CC/C=C\C/C=C\C/C=C\C/C=C\C/C=C\CCCC(=O)NC1CCN(C(=O)c2cccnc2)CC1` [Compound I-28, (5Z,8Z,11Z,14Z,17Z)—N-(1-nicotinoylpiperidin-4-yl)icosa-5,8,11,14,17-pentaenamide], below 25 µM.
As for `CC/C=C\C/C=C\C/C=C\C/C=C\C/C=C\CCCC(=O)NCC1CCN(C(=O)c2cccnc2)CC1` [Compound I-29, (5Z,8Z,11Z,14Z,17Z)—N-((1-nicotinoylpiperidin-4-yl)methyl)icosa-5,8,11,14,17-pentaenamide], the IC50 is below 25 µM.
In turn, `CC/C=C\C/C=C\C/C=C\C/C=C\C/C=C\CCCC(=O)NCCNC(=O)CNC(=O)c1cccnc1` [Compound I-30, N-(2-((2-((5Z,8Z,11Z,14Z,17Z)-icosa-5,8,11,14,17-pentaenamido)ethyl)amino)-2-oxoethyl)nicotinamide] displayed an IC50 of 25 to 50 µM.
Still for that read-out and setting: the result for `CC/C=C\C/C=C\C/C=C\C/C=C\C/C=C\CCCC(=O)N1CCC(CNC(=O)c2cccnc2)CC1` [Compound I-31, N-((1-((5Z,8Z,11Z,14Z,17Z)-icosa-5,8,11,14,17-pentaenoyl)piperidin-4-yl)methyl)nicotinamide] reads below 25 µM; that for `CC/C=C\C/C=C\C/C=C\C/C=C\C/C=C\CCCC(=O)NC[C@@H]1CCCN1C(=O)c1cccnc1` [Compound I-32, (5Z,8Z,11Z,14Z,17Z)—N—(((S)-1-nicotinoylpyrrolidin-2-yl)methyl)icosa-5,8,11,14,17-pentaenamide], below 25 µM; that for `CC/C=C\C/C=C\C/C=C\C/C=C\C/C=C\CCCC(=O)NC[C@H]1CCCN1C(=O)c1cccnc1` [Compound I-33, (5Z,8Z,11Z,14Z,17Z)—N—(((R)-1-nicotinoylpyrrolidin-2-yl)methyl)icosa-5,8,11,14,17-pentaenamide], below 25 µM.
`CC/C=C\C/C=C\C/C=C\C/C=C\C/C=C\CCCC(=O)N1CCC[C@H]1CNC(=O)c1cccnc1` [Compound I-34, N—(((S)-1-((5Z,8Z,11Z,14Z,17Z)-icosa-5,8,11,14,17-pentaenoyl)pyrrolidin-2-yl)methyl)nicotinamide] returned a concentration for half-maximal inhibition (IC50) below 25 µM.
`CC/C=C\C/C=C\C/C=C\C/C=C\C/C=C\CCCC(=O)N[C@H]1CC[C@H](CNC(=O)c2cccnc2)CC1` [Compound I-41, N-(((1R,4R)-4-((5Z,8Z,11Z,14Z,17Z)-icosa-5,8,11,14,17-pentaenamido)cyclohexyl)methyl)nicotinamide] showed an IC50 below 25 µM.
Same read-out and setting: the result for `CC/C=C\C/C=C\C/C=C\C/C=C\C/C=C\CCCC(=O)N[C@H]1CC[C@H](NC(=O)c2cccnc2)CC1` [Compound I-42, N-((1R,4R)-4-((5Z,8Z,11Z,14Z,17Z)-icosa-5,8,11,14,17-pentaenamido)cyclohexyl)nicotinamide] reads above 50 µM; that for `CC/C=C\C/C=C\C/C=C\C/C=C\C/C=C\CCCC(=O)N(C)CC1CCN(C(=O)c2cccnc2)CC1` [Compound I-48, (5Z,8Z,11Z,14Z,17Z)—N-methyl-N-((1-nicotinoylpiperidin-4-yl)methyl)icosa-5,8,11,14,17-pentaenamide], below 25 µM; that for `CC/C=C\C/C=C\C/C=C\C/C=C\C/C=C\CCCC(=O)N(C)[C@H]1CCN(C(=O)c2cccnc2)C1` [Compound I-49, (5Z,8Z,11Z,14Z,17Z)—N-methyl-N—((S)-1-nicotinoylpyrrolidin-3-yl)icosa-5,8,11,14,17-pentaenamide], 25 to 50 µM.
Same read-out and setting: the result for `CC/C=C\C/C=C\C/C=C\C/C=C\C/C=C\CCCC(=O)NCCNC(=O)c1ccccc1NC(=O)c1cccnc1` [Compound I-59, N-(2-((2-((5Z,8Z,11Z,14Z,17Z)-icosa-5,8,11,14,17-pentaenamido)ethyl)carbamoyl)phenyl)nicotinamide] reads above 50 µM.
Same read-out and setting: the result for `CC/C=C\C/C=C\C/C=C\C/C=C\C/C=C\CCCC(=O)N1CCN(C(=O)c2ccccc2NC(=O)c2cccnc2)CC1` [Compound I-60, N-(2-(4-((5Z,8Z,11Z,14Z,17Z)-icosa-5,8,11,14,17-pentaenoyl)piperazine-1-carbonyl)phenyl)nicotinamide] reads above 50 µM; that for `CC/C=C\C/C=C\C/C=C\C/C=C\C/C=C\CCCC(=O)N1CC[C@H](N(C)C(=O)c2cccnc2)C1` [Compound I-61, N—((S)-1-((5Z,8Z,11Z,14Z,17Z)-icosa-5,8,11,14,17-pentaenoyl)pyrrolidin-3-yl)-N-methylnicotinamide], above 50 µM.
Compound `CC/C=C\C/C=C\C/C=C\C/C=C\C/C=C\CCCC(=O)Nc1nc(C)ncc1CNC(=O)c1cccnc1` [Compound I-64, N-((4-((5Z,8Z,11Z,14Z,17Z)-icosa-5,8,11,14,17-pentaenamido)-2-methylpyrimidin-5-yl)methyl)nicotinamide] displayed a half-maximal inhibitory concentration (IC50) of 25 to 50 µM.
On the same count and under the same terms, to `CC/C=C\C/C=C\C/C=C\C/C=C\C/C=C\CCCC(=O)NCCNC(=O)c1ccc(CCN2CCOCC2)nc1` [Compound V-2, N-(2-((5Z,8Z,11Z,14Z,17Z)-icosa-5,8,11,14,17-pentaenamido)ethyl)-6-(2-morpholinoethyl)nicotinamide] belongs 25 to 50 µM; to `CC/C=C\C/C=C\C/C=C\C/C=C\C/C=C\CCCC(=O)NCCNC(=O)c1ccc(CCN2CCCC2)nc1` [Compound V-8, N-(2-((5Z,8Z,11Z,14Z,17Z)-icosa-5,8,11,14,17-pentaenamido)ethyl)-6-(2-(pyrrolidin-1-yl)ethyl)nicotinamide], below 25 µM.

The same assay, now with this note: HepG2 cells, highest tested concentration of 50 μM, FIG. 1.
Regarding `CC/C=C\C/C=C\C/C=C\C/C=C\C/C=C\CCCC(=O)NCCNC(C)=O` [Compound A, (5Z,8Z,11Z,14Z,17Z)—N-(2-acetamidoethyl)icosa-5,8,11,14,17-pentaenamide, reference compound], the “activity toward PCSK9” value was “essentially no activity”.
